From ChEMBL document CHEMBL5360596, “Triquinane Sesquiterpene Glycosides from the Basidiomycete Antrodiella zonata” (J Nat Prod, 2023)
Converted amounts (≈) assume the structure as drawn.

How the values were obtained:
[1] = system: Staphylococcus aureus; test: Antibacterial activity against Staphylococcus aureus ATCC 29213 assessed as bacterial growth inhibition incubated for 24 hrs by photometric analysis; format: functional
[2] = Immunosuppressive activity against B cell (unknown origin) assessed as inhibition of LPS-induced cell proliferation; format: functional, cell-based

Row | Structure (SMILES) | MIC50 [1] [µM] | IC50 [2] [µM]
1 | CC1=C2[C@@H]3CC(C)(C)C[C@@H]3[C@H](O[C@@H]3OC[C@@H](O)[C@H](O)[C@H]3O)[C@@]2(C)CC1=O | 69 (≈ 25.3 µg/mL) | 
2 | CCCCCC[C@@H](O)C(=O)O[C@@H]1[C@@H]2[C@H](CC1(C)C)[C@H](O)[C@@]1([C@H](O)C(=O)OC)OCC(=O)[C@@]21C |  | 6.6
3 | CC1(C)C[C@H]2[C@@H](C1)C1=CC(=O)C[C@]1(C)[C@H]2O[C@@H]1O[C@H](CO)[C@@H](O)[C@H](O)[C@H]1O | 34 (≈ 13 µg/mL) | 
4 | CC1=C2[C@@H]3CC(C)(C)C[C@@H]3[C@H](O[C@@H]3O[C@H](CO)[C@@H](O)[C@H](O)[C@H]3O)[C@@]2(C)CC1=O | 35 (≈ 13.9 µg/mL) | 
